Source: US6569878B1, “Substituted 4-amino-thiazol-2-yl compounds as cyclin-dependent kinase inhibitors” (Agouron Pharmaceuticals Inc., priority 1997, dated 2003)
pIC50, pKi: −log10 of the molar value. Where two headings read alike, the source gives them in different places.

Key:
[1] = target: T1, complex of human CDK4 and cyclin D3 (Homo sapiens, UniProt P11802); test: Inhibition of CDK4/cyclin D retinoblastoma kinase activity (D-type cyclin is D3); format: biochemical; details: superscript a: D-type cyclin is D3; apparent Ki; read-out: Ki CDK 4/D
T1 construct: made in house; host or cells: insect cells, co-infected with baculovirus
Description: Cyclin-dependent kinase activity was measured by quantifying the enzyme-catalyzed, time-dependent incorporation of radioactive phosphate from [^32P]ATP or [^33P]ATP into a protein substrate. […] Reactions were initiated with enzyme, incubated at 30° C., and terminated after 20 minutes by the addition of ethylenediaminetetraacetic acid (EDTA) to 250 mM. […] Radioactivity was quantified by exposing the dried membranes to a phosphorimager.
(§1) Apparent Ki values were measured by assaying enzyme activity in the presence of different inhibitor compound concentrations and subtracting the background radioactivity measured in the absence of enzyme. The kinetic parameters (kcat, Km for ATP) were measured for each enzyme under the usual assay conditions by determining the dependence of initial rates on ATP concentration. Inhibition data were fit to an equation for competitive inhibition using Kaleidagraph (Synergy Software), or were fit to an equation for competitive tight-binding inhibition using the software KineTic (BioKin, Ltd.).
Phosphorylated Rb substrate was captured by microfiltration on a nitrocellulose membrane and quantified using a phosphorimager as described above. For measurement of tight-binding inhibitors, the enzyme complex concentration was lowered to 5 nM, and the assay duration was extended to 60 minutes, during which the time-dependence of product formation was linear.

[2] = test system: U2-OS; test: Inhibition of cell growth, MTT assay, U2-OS; format: cell-based; details: for pIC50 / IC90: Homo sapiens, U2OS; for % inhibition of growth in parentheses after >25: concentration not given
Description: (§2) The water-insoluble purple formazan product was then detected spectrophotometrically. […] Plates were incubated for four hours before addition of inhibitor compounds. Different concentrations of inhibitor compounds were added in 0.5% (v/v) dimethylsulfoxide (15 μL/well), and cells were incubated at 37° C. (5% CO2) for four to six days (depending on cell type). At the end of the incubation, MTT was added to a final concentration of 0.2 mg/mL, and cells were incubated for 4 hours more at 37° C. After centrifugation of the plates and removal of medium, the absorbance of the formazan (solubilized in dimethylsulfoxide) was measured at 540 nm.

[3] = target: T2, CDK2/cyclin A (Homo sapiens, UniProt P24941); test: Inhibition of CDK2/cyclin A retinoblastoma kinase activity; format: biochemical; details: read-out: Ki CDK 2/A; for Ki: μM
T2 construct: made in house; host or cells: CDK2: insect cells (baculovirus); cyclin A: E. coli, then limited proteolysis
Description: Cyclin-dependent kinase activity was measured by quantifying the enzyme-catalyzed, time-dependent incorporation of radioactive phosphate from [^32P]ATP or [^33P]ATP into a protein substrate. Unless noted otherwise, assays were performed in 96-well plates in a total volume of 50 μL, in the presence of 10 mM HEPES (N-[2-hydroxyethyl]piperazine-N′-[2-ethanesulfonic acid]) (pH 7.4), 10 mM MgCl2, 25 μM adenosine triphosphate (ATP), 1 mg/mL ovalbumin, 5 μg/mL leupeptin, 1 mM dithiothreitol, 10 mM β-glycerophosphate, 0.1 mM sodium vanadate, 1 mM sodium fluoride, 2.5 mM ethylene glycol-bis(β-aminoethyl ether)-N,N,N′N′-tetraacetic acid (EGTA), 2% (v/v) dimethylsulfoxide, and 0.03-0.4 μCi [^32/33P]ATP per reaction. Reactions were initiated with enzyme, incubated at 30° C., and terminated after 20 minutes by the addition of ethylenediaminetetraacetic acid (EDTA) to 250 mM. The phosphorylated substrate was then captured on a nitrocellulose or phosphocellulose membrane using a 96-well filtration manifold, and unincorporated radioactivity was removed by repeated washing with 0.85% phosphoric acid. Radioactivity was quantified by exposing the dried membranes to a phosphorimager.
as §1
CDK2 was purified using published methodology (Rosenblatt et al., “Purification and Crystallization of Human Cyclin-dependent Kinase 2,” J. Mol. Biol., vol. 230, 1993, pp. 1317-1319) from insect cells that had been infected with a baculovirus expression vector. […] Purified, proteolyzed cyclin A was included in the assay at a three- to five-fold molar excess to CDK2. Alternatively, a complex of CDK2 and proteolyzed cyclin A was prepared and purified by gel filtration. The substrate for this assay was the same Rb substrate fragment used for the CDK4 assays, and the methodology of the CDK2/cyclin A and the CDK4/cyclin D3 assays was essentially the same, except that CDK2 was present at 150 nM or 5 nM. Ki values were measured as described above.

[4] = test system: Saos-2; test: Inhibition of cell growth, MTT assay, Saos-2; format: cell-based; details: Saos-2, MTT assay; for pIC50 / IC90: Homo sapiens; for % inhibition of growth in parentheses after >25: concentration not given
Description: as §2

[5] = test system: HCT116; test: Inhibition of cell growth, MTT assay, HCT116; format: cell-based, human; details: for pIC50 / IC90: Homo sapiens, HCT-116
Description: as §2

T1 sequence (P11802 whole entry): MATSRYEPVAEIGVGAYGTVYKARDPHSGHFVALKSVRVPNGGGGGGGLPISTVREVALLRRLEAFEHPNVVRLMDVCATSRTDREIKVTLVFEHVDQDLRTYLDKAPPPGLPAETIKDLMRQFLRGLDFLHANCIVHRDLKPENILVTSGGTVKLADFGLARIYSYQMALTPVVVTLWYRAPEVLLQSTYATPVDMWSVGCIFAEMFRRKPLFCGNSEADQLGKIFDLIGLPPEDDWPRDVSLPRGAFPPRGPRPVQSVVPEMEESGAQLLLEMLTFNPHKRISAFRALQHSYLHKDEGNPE
T1 sequence (P30281 whole entry partner): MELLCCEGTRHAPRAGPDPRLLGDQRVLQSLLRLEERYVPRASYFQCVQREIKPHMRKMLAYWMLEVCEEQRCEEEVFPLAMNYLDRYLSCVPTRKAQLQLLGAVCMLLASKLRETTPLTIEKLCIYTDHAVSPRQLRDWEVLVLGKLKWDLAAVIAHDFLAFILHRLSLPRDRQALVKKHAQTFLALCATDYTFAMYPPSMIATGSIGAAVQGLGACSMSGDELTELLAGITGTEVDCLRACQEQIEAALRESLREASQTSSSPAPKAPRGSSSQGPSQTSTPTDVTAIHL

| SMILES | pKi [1] | pIC50 [2] | IC90 [2] | pKi [3] | pIC50 [5] | IC90 [5] | Ki [3] | pIC50 [4] | IC90 [4] | % inhibition of growth in parentheses after >25 [2] | % inhibition of growth in parentheses after >25 [4] | % inhibition of growth in parentheses after >25 ([5]; concentration not given) |
| --- | --- | --- | --- | --- | --- | --- | --- | --- | --- | --- | --- | --- |
| Nc1nc(Nc2ccc(C(=O)C3COC(=O)[C@H]3N)cc2)sc1C(=O)c1c(Cl)cncc1Cl (stereo partly drawn) [C(88), trans-3RS-Amino-4RS-{4-[4-amino-5-(3,5-dichloropyridine-4-carbonyl)-thiazol-2-ylamino]-benzoyl}-dihydro-furan-2-one] | 7.19 | < 4.60 | – | 6.52 | 4.72 | > 25 µM | – | 4.66 | > 25 µM | 26% | (56%) | 70% |
| Cc1cc(N)sc1C(=O)c1sc(Nc2ccc(S(N)(=O)=O)cc2)nc1N [D(5)] | 6.80 | < 4.60 | – | 6.63 | 5.72 | 5 µM | – | 4.77 | 25 µM | – | – | – |
| Cc1ccc(C(=O)c2sc(Nc3cccnc3)nc2N)c(C)c1 [C(21), [4-Amino-2-(pyridin-3-ylamino)-thiazol-5-yl]-(2,4-dimethyl-phenyl)-methanone] | 6.93 | 4.66 | > 25 µM | 6.32 | 5.05 | 22 µM | – | 4.89 | 23 µM | 57% | – | – |
| Cc1cccc(Br)c1C(=O)c1sc(Nc2ccc(N3CCOCC3)cc2)nc1N [C(84), [4-Amino-2-(4-morpholin-4-yl-phenylamino)-thiazol-5-yl]-(2-bromo-6-methyl-phenyl)-methanone] | 7.28 | – | – | 5.98 | – | – | – | – | – | – | – | – |
| Cc1cccc(-c2ccccc2)c1C(=O)c1sc(Nc2ccc3nc[nH]c3c2)nc1N [C(67), [4-Amino-2-(1H-benzoimidazol-6-ylamino)-thiazol-5-yl]-(3-methyl-biphenyl-2-yl)-methanone] | 5.50 | – | – | – | – | – | 13.2 µM | – | – | – | – | – |
| Cc1ccc(C(=O)c2sc(Nc3ccccc3)nc2N)cc1 [I(12)] | 6.42 | – | – | 5.38 | – | – | – | – | – | – | – | – |
| Cc1c(C(=O)c2sc(Nc3ccc4nc[nH]c4c3)nc2N)ncn1C [C(74), [4-Amino-2-(1H-benzoimidazol-6-ylamino)-thiazol2-5-yl]-(1,5-dimethyl-1H-imidazol-4-yl)-methanone] | 5.32 | – | – | – | – | – | 10.6 µM | – | – | – | – | – |
| CCOC(=O)CC(C)Nc1nc(N)c(C(=O)c2sccc2C)s1 (racemic) [C(46), Ethyl 3RS-[4-Amino-5-(3-methyl-thiophene-2-carbonyl)-thiazol-2-ylamino]-butyrate] | 6.61 | – | – | 5.75 | – | – | – | – | – | – | – | – |
| CN(CC(=O)OC(C)(C)C)c1ccc(Nc2nc(N)c(C(=O)c3c(F)cccc3F)s2)cc1 [C(103), tert-Butyl({4-[4-Amino-5-(2,6-difluoro-benzoyl)-thiazol-2-ylamino]-phenyl}-methyl-amino)-acetate] | 6.96 | – | – | 6.23 | – | – | – | – | – | – | – | – |
| Nc1nc(Nc2ccc(S(N)(=O)=O)cc2)sc1C(=O)[C@@H]1CCCN1C(=O)OCc1ccccc1 [C(65), 2S-[4-Amino-2-(4-sulfamoyl-phenylamino)-thiazole-5-carbonyl]-N-carbobenzyloxy-pyrrolidine] | 4.42 | – | – | – | – | – | 14.3 µM | – | – | – | – | – |
| COC(=O)c1sc(Nc2ccc3nc[nH]c3c2)nc1N [A(12), 4-Amino-2-(1H-benzoimidazol-6-ylamino)-thiazole-5-carboxylic Acid Methyl Ester] | 5.03 | – | – | 5.39 | – | – | – | – | – | – | – | – |
| Nc1nc(Nc2ccc(-c3ncc[nH]3)cc2)sc1C(=O)c1c(Cl)cc(C(F)(F)F)cc1Cl [C(53), {4-Amino-2-[4-(1H-imidazol-2-yl)-phenylamino]-thiazol-5-yl}-(2,6-dichloro-4-trifluoromethyl-phenyl)-methanone] | 7.07 | – | – | 6.74 | – | – | – | – | – | – | – | – |
| CCOC(=O)c1ccc(Nc2nc(N)c(C(=O)c3c(Cl)cccc3Cl)s2)cc1 [C(56), Ethyl 4-[4-Amino-5-(2,6-dichloro-benzoyl)-thiazol-2-ylamino]-benzoate] | 6.71 | – | – | 5.99 | – | – | – | – | – | – | – | – |

The next molecules have a higher pKi [1] than those just listed; values first:

| pKi [1] | pIC50 [2] | IC90 [2] | pKi [3] | pIC50 [5] | IC90 [5] | Ki [3] | SMILES | pIC50 [4] | IC90 [4] | % inhibition of growth in parentheses after >25 [2] | % inhibition of growth in parentheses after >25 [4] | % inhibition of growth in parentheses after >25 ([5]; concentration not given) |
| --- | --- | --- | --- | --- | --- | --- | --- | --- | --- | --- | --- | --- |
| 7.47 | – | – | 6.34 | – | – | – | Cc1ccc(C(=O)c2sc(Nc3ccc(N4CCOCC4)cc3)nc2N)c(C)c1 [C(54), [4-Amino-2-(4-morpholin-4-yl-phenylamino)-thiazol-5-yl]-(2,4-dimethyl-phenyl)-methanone] | – | – | – | – | – |
| 7.47 | – | – | 6.51 | – | – | – | Cc1ccc(C)c(C(=O)c2sc(Nc3ccc4nc[nH]c4c3)nc2N)c1C [C(58), [4-Amino-2-(1H-benzoimidazol-6-ylamino)-thiazol-5-yl]-(2,3,6-trimethyl-phenyl)-methanone] | – | – | – | – | – |
| 7.57 | 5.72 | 6 µM | 6.17 | 5.70 | 5 µM | – | COc1ccc(Nc2nc(N)c(C(=O)c3ccccc3I)s2)cc1 [C(12), [4-Amino-2-(4-methoxy-phenylamino)-thiazol-5-yl]-(2-iodo-phenyl)-methanone] | 5.68 | 4.8 µM | – | – | – |
| 7.60 | 4.96 | > 25 µM | 7.41 | 5.37 | 19 µM | – | Nc1nc(Nc2ccc(S(N)(=O)=O)cc2)sc1C(=O)c1c(Cl)cc(C(F)(F)F)cc1Cl [C(38), 4-[4-Amino-5-(2,6-dichloro-4-trifluoromethyl-benzoyl)-thiazol-2-ylamino]-benzenesulfonamide] | 5.52 | > 25 µM | 87% | 80% | – |
| 7.70 | 4.85 | ≥ 26 µM | 6.20 | 5.30 | 15 µM | – | Nc1nc(Nc2ccc(N3CCOCC3)cc2)sc1C(=O)c1c(Cl)cncc1Cl [C(69), {4-Amino-2-[4-morpholin-4-yl-phenylamino]-thiazol-5-yl}-(3,5-dichloro-pyridin-4-yl)-methanone] | 4.92 | ≥ 26 µM | – | – | – |
| 7.76 | 5.10 | 19 µM | 6.62 | 5.42 | 8 µM | – | NC(=O)c1ccc(Nc2nc(N)c(C(=O)c3c(F)cccc3C(F)(F)F)s2)cc1 [C(113), 4-[4-Amino-5-(2-fluoro-6-trifluoromethyl-benzoyl)-thiazol-2-ylamino]-benzamide] | 5.55 | 9 µM | – | – | – |
| 7.86 | 5.10 | 12 µM | 7.90 | 5.60 | 7 µM | – | Nc1nc(Nc2ccc(S(N)(=O)=O)cc2)sc1C(=O)c1c(Cl)cc(Cl)cc1Cl [C(107), 4-[4-Amino-5-(2,4,6-trichloro-benzoyl)-thiazol-2-yl-amino]-benzenesulfonamide] | 5.24 | 12 µM | – | – | – |
| 8.17 | 4.72 | > 25 µM | 7.09 | 5.33 | 18 µM | – | Nc1nc(Nc2ccc3nc[nH]c3c2)sc1C(=O)c1c(Cl)cc(Br)c(N)c1Cl [C(91), [4-Amino-2-(1H-benzoimidazol-6-ylamino)-thiazol-5-yl]-(3-amino-4-bromo-2,6-dichloro-phenyl)-methanone] | 5.23 | 23 µM | – | – | – |
